32 molecules from patent EP3964206A1, “COMPOUNDS FOR THE TREATMENT OF COVID-19” (priority 2020, dated 2022) can be followed below.

The structures appear in SMILES notation. Structures can show the parent of a compound that is named as a salt. Peptide text beside a SMILES is read from it. * marks the point of attachment. Cbz = O=C(OCc1ccccc1)*

The subject of the first assay is SARS-CoV-2. Nature of the assay: microbe, parasite or virus in culture. The class given is cell-based. Particulars: Severe acute respiratory syndrome coronavirus 2, 120 h.
Regarding `CCC(C/C=C/c1ccccc1)(c1ccccc1)N(C)CC1CC1` (single isomer, unassigned; (+)) [Compound 89, (+)-N-(Cyclopropylmethyl)-N-[1-ethyl-1,4-diphenyl-3(E)-butenyl]-N-methylamine], the IC50 – broadly, the concentration at which inhibition is half-maximal – is 11.2 µM.

`CN(Cc1cnc2nc(N)nc(N)c2n1)c1ccc(C(=O)N[C@@H](CCC(=O)O)C(=O)O)cc1` [Compound 1, N-[4-[N-(2,4-Diaminopteridin-6-ylmethyl)-N-methylamino]benzoyl]-L-glutamic acid] displayed an IC50 of 0.05 µM. As for `CN(C)c1cccc(-c2c3c(=O)n(-c4ccccc4Cl)[nH]c3cc(=O)n2C)c1` [Compound 13, 2-(2-Chlorophenyl)-4-[3-(dimethylamino)phenyl]-5-methyl-1H-pyrazolo[4,3-c]pyridine-3,6(2H,5H)-dione], half-maximal inhibition (IC50) required 7.57 µM. On to `C/C(=C\c1ccc(C(=O)O)cc1)c1ccc2c(c1)C(C)(C)CCC2(C)C` [Compound 26, 4-[2-(5,5,8,8-Tetramethyl-5,6,7,8-tetrahydronaphthalen-2-yl)-1(E)-propenyl]benzoic acid], for which the half-maximal inhibitory concentration (IC50) is 33.7 µM.

Molecule `CN1[C@@H]2CC[C@H]1C[C@@H](OC(=O)c1cc(Cl)cc(Cl)c1)C2` [Compound 36, 3,5-Dichlorobenzoic acid endo-8-methyl-8-azabicyclo[3.2.1]oct-3-yl ester] registered a 50% inhibitory concentration (IC50) of 43.9 µM. Take `CC1=NN(c2ccc(C)c(C)c2)C(=O)/C1=N\Nc1cccc(-c2cccc(C(=O)O)c2)c1O` [Compound 37, 3'-[2(Z)-[1-(3,4-Dimethylphenyl)-3-methyl-5-oxo-4,5-dihydro-1H-pyrazol-4-ylidene]hydrazino]-2'-hydroxybiphenyl-3-carboxylic acid]: inhibition was half-maximal at 58.1 µM (IC50).

The assay is the same for the next values; noted with them: Severe acute respiratory syndrome coronavirus 2, 120 h, read-out: Maximum confluence reached (%).
In the case of `CCCCN(CCCC)CCC(O)c1cc2c(Cl)cc(Cl)cc2c2cc(C(F)(F)F)ccc12` (racemic) [Compound 40, (±)-1,3-Dichloro-9-[3-(dibutylamino)-1-hydroxypropyl]-6-(trifluoromethyl)phenanthrene hydrochloride], the Emax was determined as 51.8%.

In the case of `CCC(C/C=C/c1ccccc1)(c1ccccc1)N(C)CC1CC1` (single isomer, unassigned; (+)) [Compound 89, (+)-N-(Cyclopropylmethyl)-N-[1-ethyl-1,4-diphenyl-3(E)-butenyl]-N-methylamine], the Emax came to 58.3%. Regarding `CN(Cc1cnc2nc(N)nc(N)c2n1)c1ccc(C(=O)N[C@@H](CCC(=O)O)C(=O)O)cc1` [Compound 1, N-[4-[N-(2,4-Diaminopteridin-6-ylmethyl)-N-methylamino]benzoyl]-L-glutamic acid], the Emax worked out at 64%. Still for that read-out and setting: with `COc1cc(NCc2ccc3nc(N)nc(N)c3c2C)cc(OC)c1OC` [Compound 2, 2,4-Diamino-5-methyl-6-[(3,4,5-trimethoxyanilino)methyl]quinazoline] the figure was 78.2%; with `Nc1nc(N)c2nc(CNc3ccc(C(=O)N[C@@H](CCC(=O)O)C(=O)O)cc3)cnc2n1` [Compound 10, N-[4-(2,4-diamino-6-pteridinylmethylamino)benzolyl]-L-glutamic acid], 72.5%; with `CN(C)c1cccc(-c2c3c(=O)n(-c4ccccc4Cl)[nH]c3cc(=O)n2C)c1` [Compound 13, 2-(2-Chlorophenyl)-4-[3-(dimethylamino)phenyl]-5-methyl-1H-pyrazolo[4,3-c]pyridine-3,6(2H,5H)-dione], 102%. As to `Nc1ncc(-c2ccnc(Nc3ccncc3)n2)c(CC2CC2)n1` [Compound 20, 4'-(Cyclopropylmethyl)-N2-(pyridin-4-yl)-4,5'-bipyrimidine-2,2'-diamine], the Emax came out at 98.2%. Regarding `C/C(=C\c1ccc(C(=O)O)cc1)c1ccc2c(c1)C(C)(C)CCC2(C)C` [Compound 26, 4-[2-(5,5,8,8-Tetramethyl-5,6,7,8-tetrahydronaphthalen-2-yl)-1(E)-propenyl]benzoic acid], the Emax was 106%. Consider `Cc1c(O)cccc1C(=O)N[C@@H](CSc1ccccc1)[C@H](O)CN1C[C@H]2CCCC[C@H]2C[C@H]1C(=O)NC(C)(C)C` [Compound 31, (3S,4aS,8aS)-N-tert-Butyl-2-[2(R)-hydroxy-3(R)-(3-hydroxy-2-methylbenzamido)-4-(phenylsulfanyl)butyl]perhydroisoquinoline-3-carboxamide methanesulfonate], for which the Emax was found to be 59.5%. Consider `c1cncc(CN2CCC(n3ncc4c(N5CCOCC5)nc(-c5ccc6[nH]ccc6c5)nc43)CC2)c1` [Compound 32, 6-(1H-Indol-5-yl)-4-(4-morpholinyl)-1-[1-(pyridin-3-ylmethyl)piperidin-4-yl]-1H-pyrazolo[3,4-d]pyrimidine], for which the Emax stood at 67.7%. On the same count and under the same terms, with `COc1ccc2c(c1)[C@]1(C[C@H]1c1ccc3c(/C=C/c4ccc(CN5C[C@@H](C)O[C@@H](C)C5)cc4)n[nH]c3c1)C(=O)N2` [Compound 33, (1R,2S)-2-[3-[(E)-2-[4-[(cis-2,6-Dimethylmorpholin-4-yl)methyl]phenyl]vinyl]-1H-indazol-6-yl]-5'-methoxyspiro[cyclopropane-1,3'-indol]-2'(1'H)-one (2E)-but-2-enedioate] the figure was 105%. The same measure, in the same setting: with `CNCc1ccc(-c2cc(-c3nc(-c4ccc(S(=O)(=O)C(C)C)cc4)cnc3N)on2)cc1` [Compound 34, 3-[3-[4-[(Methylamino)methyl]phenyl]-1,2-oxazol-5-yl]-5-[4-(propan-2-ylsulfonyl)phenyl]pyrazin-2-amine] the figure was 99.2%; with `COc1cc2c(N3CCN(C(=O)Nc4ccc(OC(C)C)cc4)CC3)ncnc2cc1OCCCN1CCCCC1` [Compound 35, N-(4-Isopropoxyphenyl)-4-[6-methoxy-7-[3-(1-piperidinyl)propoxy]quinazolin-4-yl]piperazine-1-carboxamide], 80.1%. Regarding `CN1[C@@H]2CC[C@H]1C[C@@H](OC(=O)c1cc(Cl)cc(Cl)c1)C2` [Compound 36, 3,5-Dichlorobenzoic acid endo-8-methyl-8-azabicyclo[3.2.1]oct-3-yl ester], the Emax worked out at 69%. On the same count and under the same terms, with `CC1=NN(c2ccc(C)c(C)c2)C(=O)/C1=N\Nc1cccc(-c2cccc(C(=O)O)c2)c1O` [Compound 37, 3'-[2(Z)-[1-(3,4-Dimethylphenyl)-3-methyl-5-oxo-4,5-dihydro-1H-pyrazol-4-ylidene]hydrazino]-2'-hydroxybiphenyl-3-carboxylic acid] the figure was 63.2%. On the same count and under the same terms, the result for `CC(=O)[C@]1(O)Cc2c(O)c3c(c(O)c2[C@@H](O[C@H]2C[C@H](N)[C@H](O)[C@H](C)O2)C1)C(=O)c1ccccc1C3=O` [Compound 38, (7S,9S)-9-Acetyl-7-[(3-amino-2,3,6-trideoxy-alpha-L-lyxo-hexopyranosyl)oxy]-7,8,9,10-tetrahydro-6,9,11-trihydroxy-5,12-naphthacenedione hydrochloride] reads 92.6%. For the molecule `Cc1nc(N)nc(N)c1-c1ccc(Cl)c(Cl)c1` [Compound 41, 5-(3,4-Dichlorophenyl)-6-methylpyrimidine-2,4-diamine], the Emax was determined as 58%. The same measure, in the same setting: the result for `O=C(CCCN1CCC2(CC1)C(=O)N(Cc1cccc(F)c1)CN2c1ccccc1)c1ccc(F)cc1` [Compound 46, 3-[(3-fluorophenyl)methyl]-8-[4-(4-fluorophenyl)-4-oxobutyl]-1-phenyl-1,3,8-triazaspiro[4.5]decan-4-one] reads 43%; that for `CC(C)c1cnn2c(NCc3ccccc3)cc(NCCCCCCN)nc12` [Compound 48, N5-(6-Aminohexyl)-N7-benzyl-3-isopropylpyrazolo[1,5-a]pyrimidine-5,7-diamine], 47.3%; that for `NC(=NC1C2CC3CC(C2)CC1C3)Nc1ccc(I)cc1` (centres unmarked) [Compound 49, 2-(2-adamantyl)-1-(4-iodophenyl)guanidine], 81.8%. Same read-out and setting: the result for `Cc1ccc(NC(=O)c2ccc(CN3CCN(C)CC3)cc2)cc1Nc1nc(-c2cccnc2)cs1` [Compound 50, 4-[(4-methylpiperazin-1-yl)methyl]-N-[4-methyl-3-[(4-pyridin-3-yl-1,3-thiazol-2-yl)amino]phenyl]benzamide] reads 57.1%. With `CC1(N2CCC(n3c([C@@H]4CCCNC4)nc4ccccc43)CC2)CCCCCCC1` [Compound 51, 1-[1-(1-Methylcyclooctyl)piperidin-4-yl]-2-[3(R)-piperidinyl]-1H-benzimidazole], the Emax was determined as 57.8%. Take `CC(C)C[C@@H](C=O)NC(=O)[C@H](CC(C)C)NC(=O)[C@H](CC(C)C)NC(=O)OCc1ccccc1` [Compound 52, Benzyloxycarbonyl-L-leucyl-L-leucyl-L-leucinal] (Cbz-Leu-Leu-Leu-aldehyde): the Emax is 82.8%. Still for that read-out and setting: with `Cc1[nH]c(/C=C2\C(=O)Nc3ccc(S(=O)(=O)Cc4c(Cl)cccc4Cl)cc32)c(C)c1C(=O)N1CCC[C@@H]1CN1CCCC1` [Compound 53, 5-(2,6-Dichlorobenzylsulfonyl)-3(Z)-[3,5-dimethyl-4-[2(R)-(pyrrolidin-1-ylmethyl)pyrrolidin-1-ylcarbonyl]-1H-pyrrol-2-ylmethylene]-2,3-dihydro-1H-indol-2-one] the figure was 95.7%; with `C[C@@H]1COCCN1c1cc(=O)n2c(n1)N(Cc1cncc(Cl)c1)[C@H](C(F)(F)F)CC2` [Compound 54, (8S)-9-[(5-Chloropyridin-3-yl)methyl]-2-[(3R)-3-methylmorpholin-4-yl]-8-(trifluoromethyl)-6,7,8,9-tetrahydro-4H-pyrimido[1,2-a]pyrimidin-4-one], 89%; with `Nc1nc(=S)c2ncn([C@@H]3O[C@H](CO)[C@@H](O)[C@H]3O)c2[nH]1` [Compound 55, 2-amino-9-[(2R,3R,4S,5R)-3,4-dihydroxy-5-(hydroxymethyl)oxolan-2-yl]-3H-purine-6-thione], 51.5%. On the same count and under the same terms, the result for `O=C(NCCN1CCC2(CC1)C(=O)NCN2c1cccc(F)c1)c1ccc2ccccc2c1` [Compound 56, N-[2-[1-(3-Fluorophenyl)-4-oxo-1,3,8-triazaspiro[4.5]dec-8-yl]ethyl]naphthalen-2-carboxamide] reads 98.5%.

As to `Cc1cc(O[C@@H](CCC(F)(F)F)c2ccc(C(=O)NCCC(=O)O)cc2)cc(C)c1-c1ccc(C(C)(C)C)cc1` [Compound 57, N-(4-[(1S)-1-[(4'-tert-Butyl-2,6-dimethylbiphenyl-4-yl)oxy]-4,4,4-trifluorobutyl]benzoyl)-beta-alanine], the Emax worked out at 39.5%. With `C[C@@H]1C[C@@H]([C@H](O)CC2CC(=O)NC(=O)C2)C(=O)[C@@H](C)C1` [Compound 58, 4-[2(R)-[(1S,3S,5S)-3,5-Dimethyl-2-oxocyclohexyl]-2-hydroxyethyl]piperidine-2,6-dione], the Emax was found to be 63.7%. Still for that read-out and setting: with `COc1cc2c(NC3CCN(C4CCCCC4)CC3)nc(N3CCCN(C(C)C)CC3)nc2cc1OCCCN1CCCCC1` [Compound 59, N-(1-Cyclohexylpiperidin-4-yl)-6-methoxy-7-[3-(1-piperidinyl)propoxy]-2-[4-(propan-2-yl)perhydro-1,4-diazepin-1-yl]quinazolin-4-amine] the figure was 80.1%. The same measure, in the same setting: the result for `CC(C)(O)CNc1ncc(-c2ccnc(Nc3ccnc(Cl)c3)n2)c(CC2CC2)n1` [Compound 60, 1-[[2-[(2-chloro-4-pyridinyl)amino]-4'-(cyclopropylmethyl)[4,5'-bipyrimidin]-2'-yl]amino]-2-methyl-2-propanol] reads 45.6%; that for `COc1ccccc1[C@H](Cn1c(=O)n(C(C)(C)C(=O)O)c(=O)c2c(C)c(-c3ncco3)sc21)OC1CCOCC1` [Compound 61, 2-[1-[(2R)-2-(2-Methoxyphenyl)-2-(tetrahydro-2H-pyran-4-yloxy)ethyl]-5-methyl-6-(1,3-oxazol-2-yl)-2,4-dioxo-1,4-dihydrothieno[2,3-d]pyrimidin-3(2H)-yl]-2-methylpropanoic acid], 78.2%.
